Measurements: patent US9738612B2, “Methylacryloyl benzimidazolone derivative and anti-tumour use thereof” (SHANGHAI NATURE STANDARD R&D AND BIOTECH CO., LTD, priority 2014, dated 2017)

Assays:
p-Akt (S473) = assay: Western blot, p-Akt (S473) in IGF stimulated A549 cells; format: cell-based; conditions: compound 1 h, IGF 10 min, FIG. 1, in words
Description: A549 cells were seeded at a density of 2×10^5 cells/well into 12-well plates, and adhered overnight. Then the medium was discarded and the plates were washed three times with normal saline. After that, fresh serum-free medium was added to starve cells for 24 hours, compounds to be tested were added to work for 1 h, then IGF-I was added to stimulated for 10 min, followed byadding a lysis buffer on ice to lyse for half an hour. The cell lysates were collected and centrifuged at 20000×g at 4° C. for 10min, then the supernatant was collected. Protein was quantified by MicroBCA protein quantification Assay kit, and the protein concentration was normalized. The supernatant was mixed with the 4×SDS sample buffer [200 mM Tris.Cl (pH 6.8), 400 mM DTT, 8% SDS, 0.4% bromophenol blue, 40% glycerol] and boiled for 15 min. After cooling at room temperature, aliquots were loaded on polyacrylamide gel, and electrophoresed in Tris-glycine electrophoretic buffer (25 mM Tris, 250 mM glycine, 0.1% SDS) at 80-120 V for about 2 h. Proteins were transferred from the gel to a nitrocellulose membrane by a semi-dry method. Transferring conditions: transfer buffer (39 mM glycine, 48 mM Tris base, 0.037% SDS, 20% methanol); transfer current 25 mA; transfer time 2 h. After transfer, Ponceau S staining was used to determine the transfer efficiency and the positions of protein bands on the nitrocellulose membranes. After labeling the membrane was blocked with a blocking solution containing 5% nonfat-dried milk [5% nonfat-dried milk, 20 mM Tris-HCl (pH 7.2-7.4), 150 mM NaCl, 0.1% (v/v) Tween 20] on a shaker at room temperature for 2 h. To the system were added specific primary antibodies and incubated overnight at 4° C. Then the membrane was washed with PBST solution [20 mM Tris-HCl (pH 7.2-7.4), 150 mM NaCl, 0.1% (v/v) Tween 20] at room temperature three times, 15 min/time. To the system were added Horseradish peroxidase-labeled secondary antibodies and incubated at room temperature on a shaker with gentle shaking for 2 h. After washing with PBST solution three times, the system was exposed, developed and fixed after SuperSignal West Dura Chemiluminescent Substrate (Pierce Inc, Rochford, IL) was used for color. The results were shown in FIG. 1, in which there were 12 lanes the band shade and size of which indicated the corresponding protein concentration levels. […] MK2206 was an Akt phosphorylation inhibitor developed by Merck, and was currently in phase II clinical trial, showing good therapeutic effects in a variety of tumors.

SGK(h) = assay: Tumor-associated kinase inhibition test; format: biochemical, human; conditions: 10 μM
Source text: Eurofins Pharma Discovery Services UK Limited completed and reported this experiment.

Hela cell = assay: Sulforhodamine B proliferation; format: cell-based; conditions: Homo sapiens, SRB method of Example 2, FIG. 3, read-out: Half inhibitory concentration to Hela cell proliferation
Description: (§1) At a certain density cells were seeded in 96-well plates, and adhered overnight. The medium was discarded after incubating cells with compounds to be tested for 72 h, then 100μL/well trichloroacetic acid (TCA) was added to fix cells at 4° C. for 2h. After that the fixing solution was discarded. Cells were gently washed 5 times with distilled water, dried at room temperature. Cells were stained with 4 mg/mL SRB staining solution (100 μL/well) at room temperature for 15min. The staining solution was discarded, and cells were washed five times with 1% acetic acid (HAC) and dried at room temperature. To the plate tris base buffer (10 mM) was added at 150 μL/well and placed at room temperature for 15min. The OD values were measured at 540 nm wavelength in a microplate reader. Inhibitory rate (%)=(OD valuecontrol wells−OD valuedrugs treated wells)/OD valuecontrol wells×100%.
(§2) In the present invention the inhibition of a representative compound FD162 to the proliferation of more than 20 tumor cell lines were tested, and the experimental methods were the same as that described in Example 2.

[1] = tested on: more than 20 tumor cell lines; assay: Proliferation of more than 20 tumor cell lines (FIG. 2); format: cell-based; conditions: FIG. 2, in words
Description: as §1, §2

A549 = assay: Sulforhodamine B proliferation; format: cell-based; conditions: Homo sapiens, A549, 72 h, SRB, read-out: Inhibitory rate % (A549)
Description: as §1
(§3) The results were shown in Table 2, the working concentrations of MK2206 and compounds of FD series were 10 μM. As shown in this Table, PC-3 is a prostate cancer cell line purchased from Cell Resource Center of Shanghai Institutes for Biological Sciences, Chinese Academy of Sciences, A549 is a lung cancer cell line purchased from Cell Resource Center of Shanghai Institutes for Biological Sciences, Chinese Academy of Sciences, and SGC-7901 is a gastric cancer cell line purchased from Cell Resource Center of Shanghai Institutes for Biological Sciences, Chinese Academy of Sciences.

PC-3 = assay: Sulforhodamine B proliferation; format: cell-based; conditions: Homo sapiens, PC-3, 72 h, 72 h, SRB, read-out: Inhibitory rate % (PC-3)
Description: as §1, §3

SGC-7901 = assay: Sulforhodamine B proliferation; format: cell-based; conditions: Homo sapiens, SGC-7901, 72 h, SRB, read-out: Inhibitory rate % (SGC-7901)
Description: as §1, §3

[2] = tested on: PI3K/Akt/mTOR signaling pathway; assay: Inhibition test to signaling pathway at the cellular level (FIG. 4); format: cell-based; conditions: different concentrations, FIG. 4, in words
Description: A549 cells were seeded at a density of 2×10^5 cells/well into 12-well plates, and adhered overnight. Then the medium was discarded and the plates were washed three times with normal saline. After that, fresh serum-free medium was added to starve cells for 24 hours, compounds to be tested were added to work for 1 h, then IGF-I was added to stimulated for 10 min, followed byadding a lysis buffer on ice to lyse for half an hour. The cell lysates were collected and centrifuged at 20000×g at 4° C. for 10min, then the supernatant was collected. Protein was quantified by MicroBCA protein quantification Assay kit, and the protein concentration was normalized. The supernatant was mixed with the 4×SDS sample buffer [200 mM Tris.Cl (pH 6.8), 400 mM DTT, 8% SDS, 0.4% bromophenol blue, 40% glycerol] and boiled for 15 min. After cooling at room temperature, aliquots were loaded on polyacrylamide gel, and electrophoresed in Tris-glycine electrophoretic buffer (25 mM Tris, 250 mM glycine, 0.1% SDS) at 80-120 V for about 2 h. Proteins were transferred from the gel to a nitrocellulose membrane by a semi-dry method. Transferring conditions: transfer buffer (39 mM glycine, 48 mM Tris base, 0.037% SDS, 20% methanol); transfer current 25 mA; transfer time 2 h. After transfer, Ponceau S staining was used to determine the transfer efficiency and the positions of protein bands on the nitrocellulose membranes. […]

Inhibitory rate (%) (SGK(h)): −4%
IC50 (Hela cell): 3.67 µM
Compound: C=C(C)n1c(=O)n(C(C)=O)c2ncc(Br)cc21 [FD162]
Effect on Akt phosphorylation level (p-Akt S473 band) (p-Akt (S473)): significantly reduce the Akt phosphorylation level
Effect on Akt phosphorylation level (p-Akt S473 band) (p-Akt (S473); listed as FD3): comparable effects to MK2206
Inhibition of proliferation of tumor cell lines [1]: widespread inhibitory effects
inhibition at 10 µM (A549): 12.1%
inhibition at 10 µM (PC-3): 62.4%
inhibition at 10 µM (SGC-7901): 70.2%
Down-regulation of PI3K/Akt/mTOR signaling pathway [2]: down-regulate PI3K/Akt/mTOR signaling pathway in a dose-dependent manner
